PMC11073699, “Odorant receptors for floral- and plant-derived volatiles in the yellow fever mosquito, Aedes aegypti (Diptera: Culicidae)” (PLOS ONE, 2024)
“And” between values parts separate entries of the source, which are not always exact repeats. Identical values can stand only once.

Experiments:
Type in all cases: cell-based
[1] = biological target: T1, AaegOR10 (Aedes aegypti, UniProt Q177X3); test: Two-electrode voltage clamp of Xenopus laevis oocytes expressing AaegOR10/Orco (blends, unitary compounds, concentration-response); details: for Raw response, unitary compounds of blend Indoles 1: unitary compounds of Indoles 1, individual oocytes 1-9 (replicates); for Raw Data, concentration-response: first series, oocytes 1-8
T1 sequence (Q177X3 1-375): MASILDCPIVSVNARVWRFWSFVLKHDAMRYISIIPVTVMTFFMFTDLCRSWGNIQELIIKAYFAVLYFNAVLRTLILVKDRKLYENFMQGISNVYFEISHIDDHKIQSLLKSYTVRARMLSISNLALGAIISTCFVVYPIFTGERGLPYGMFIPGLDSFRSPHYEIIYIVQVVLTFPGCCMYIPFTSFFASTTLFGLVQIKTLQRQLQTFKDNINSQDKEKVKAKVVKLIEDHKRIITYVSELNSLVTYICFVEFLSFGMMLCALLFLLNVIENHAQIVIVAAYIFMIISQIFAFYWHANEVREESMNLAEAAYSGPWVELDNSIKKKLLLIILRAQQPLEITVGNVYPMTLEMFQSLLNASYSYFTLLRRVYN
T1 sequence (Q178U6 1-478 partner): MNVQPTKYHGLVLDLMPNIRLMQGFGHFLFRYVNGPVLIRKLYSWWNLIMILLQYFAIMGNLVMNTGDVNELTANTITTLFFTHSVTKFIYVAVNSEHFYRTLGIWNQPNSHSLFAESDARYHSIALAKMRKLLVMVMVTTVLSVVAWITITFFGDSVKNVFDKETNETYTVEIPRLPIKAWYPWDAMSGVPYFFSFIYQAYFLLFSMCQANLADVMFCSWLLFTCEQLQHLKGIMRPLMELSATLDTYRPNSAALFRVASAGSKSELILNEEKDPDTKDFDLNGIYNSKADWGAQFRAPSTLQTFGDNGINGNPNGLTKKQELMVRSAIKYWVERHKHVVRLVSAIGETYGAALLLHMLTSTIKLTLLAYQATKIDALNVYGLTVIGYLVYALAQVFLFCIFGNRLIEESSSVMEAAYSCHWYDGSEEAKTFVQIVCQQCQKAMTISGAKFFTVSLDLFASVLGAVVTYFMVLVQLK
From the text: (§1) The coding regions of ten AaegOR genes of interest (S3 File) and AaegOrco were synthesized by Twist Bioscience (San Francisco, CA, USA) and cloned into the pENTR plasmid. The Gateway LR directional cloning system (Invitrogen Corp., Carlsbad, CA, USA) was utilized to subclone AaegOR coding regions into the pSP64t-RFA oocyte expression plasmid. Plasmids were purified using the GeneJet Plasmid Miniprep Kit (ThermoFisher Scientific, Waltham, MA, USA). Purified plasmids were sequenced in both directions to confirm coding regions.
(§2) Chemical compounds (S6 File) used in the deorphanization of AaegORs were purchased from Acros Organics (Morris, NJ, USA), Alfa Aesar (Ward Hill, MA, USA), and ThermoFisher Scientific (Waltham, MA, USA) at the highest purity available. Compounds were stored as 1M stocks in 100% DMSO. Serial dilutions of each compound were prepared in 10% DMSO and blended by chemical class.
(§3) pSP64t-RFA: AaegOR clones were linearized using Xbal, and cRNAs were synthesized using the mMESSAGE mMACHINE ® SP6 kit (Life Technologies, Carlsbad, CA, USA). Xenopus laevis stage V-VII oocytes purchased from Xenopus1 (Dexter, MI, USA) were stored at 18°C in Incubation medium (ND96 96 with 5% dialyzed horse serum, 50μg/mL gentamycin, 100μg/mL streptomycin, 100μg/mL penicillin, and 550μg/mL sodium pyruvate). 30nL of cRNA was injected into multiple oocytes using a microinjection syringe pump (World Precision Instruments, Sarasota, FL, USA) maintained at 18°C for 48–72 hrs. Odorant blends were perfused across individual oocytes for 10–15 seconds, held at a resting membrane potential of -80 mV using an OC-725C oocyte clamp (Warner Instruments, LLC, Hamden, CT, USA). Induced currents were measured indirectly using the two-electrode voltage clamp technique (TEVC). Following each stimulus, currents were allowed to return to baseline before further stimulation. Data was captured using the Digidata 1550 B digitizer and PClamp10 software (Molecular Devices, San Jose, CA, USA). Concentration-response curves were generated by perfusing unitary odorants over oocytes at increasing concentrations from [10^-3M] to [10^-9M]. Data were analyzed using GraphPad Prism 8 (GraphPad Software Inc., La Jolla, CA, USA). At least two biological replicates were conducted at each concentration and for each compound. Data for at least seven oocytes responding to each compound was analyzed (S7 File).

[2] = biological target: T2, AaegOR13 (Aedes aegypti, UniProt Q16Z13); test: Two-electrode voltage clamp of Xenopus laevis oocytes expressing AaegOR13/Orco (blends, unitary compounds, concentration-response); details: for Raw data (Responses in nA), unitary compounds of Indoles 1, Alcohols 1, Alcohols 3: individual oocytes 1-7
T2 sequence (Q16Z13 1-389): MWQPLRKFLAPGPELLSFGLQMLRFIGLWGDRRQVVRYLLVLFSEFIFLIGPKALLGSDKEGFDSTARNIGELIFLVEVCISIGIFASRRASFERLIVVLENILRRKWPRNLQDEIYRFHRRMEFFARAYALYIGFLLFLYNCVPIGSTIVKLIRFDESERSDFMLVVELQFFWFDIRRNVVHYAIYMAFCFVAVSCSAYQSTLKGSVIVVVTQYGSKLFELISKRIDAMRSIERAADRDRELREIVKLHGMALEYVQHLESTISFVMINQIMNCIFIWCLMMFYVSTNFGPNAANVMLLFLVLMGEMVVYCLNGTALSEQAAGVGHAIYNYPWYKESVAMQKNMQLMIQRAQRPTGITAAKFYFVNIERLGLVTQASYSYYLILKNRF
T2 sequence (Q178U6 1-478 partner): T1 sequence (Q178U6 1-478 partner)
Outline: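 Xenopus oocytes injected with cRNA for AaegOR plus Orco, kept 48–72 hrs at 18°C, clamped at -80 mV by TEVC. Odorant blends or single compounds (10% DMSO dilutions) perfused 10–15 s; concentration-response from 10^-3M to 10^-9M, ≥7 responding oocytes, ≥2 biological replicates.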

[3] = biological target: T3, AaegOR55 (Aedes aegypti, UniProt Q16T12); test: Two-electrode voltage clamp of Xenopus laevis oocytes expressing AaegOR55/Orco (blends, unitary compounds, concentration-response); details: for Raw Data (Responses in nA), Indoles 1 unitary compounds / Raw Data (Responses in nA), concentration-response: AaegOR55; for Raw Data (Responses in nA), Indoles 1 unitary compounds: compounds of blend Indoles 1, individual oocytes (Oocyte 1-7); for Raw Data (Responses in nA), concentration-response: individual oocytes (Oocyte 1-9)
T3 sequence (Q16T12 10-392): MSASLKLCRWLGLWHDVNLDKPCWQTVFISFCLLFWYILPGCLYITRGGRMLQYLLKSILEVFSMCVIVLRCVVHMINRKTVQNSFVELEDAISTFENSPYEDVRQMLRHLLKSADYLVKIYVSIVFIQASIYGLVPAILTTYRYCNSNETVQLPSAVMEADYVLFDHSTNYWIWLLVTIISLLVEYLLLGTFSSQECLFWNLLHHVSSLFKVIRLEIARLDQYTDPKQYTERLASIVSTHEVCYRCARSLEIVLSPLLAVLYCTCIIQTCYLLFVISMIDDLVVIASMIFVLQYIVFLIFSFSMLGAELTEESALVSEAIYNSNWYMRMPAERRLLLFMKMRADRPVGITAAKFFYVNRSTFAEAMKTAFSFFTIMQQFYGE
T3 sequence (Q178U6 1-478 partner): T1 sequence (Q178U6 1-478 partner)
From the text: as §1, §2, §3

| SMILES | Raw response, unitary compounds of blend Indoles 1 [1] | Raw data (Responses in nA), unitary compounds of Indoles 1, Alcohols 1, Alcohols 3 [2] | Raw Data (Responses in nA), Indoles 1 unitary compounds [3] | EC50 ([2]; AaegOR13/Orco expressing oocytes, TEVC, concentration-response of normalized current) | EC50 ([3]; AaegOR55/Orco expressing oocytes, TEVC, concentration-response of normalized current) | Raw Data (Responses in nA), concentration-response ([3]; concentration 1e-7 M) | Raw Data (Responses in nA), concentration-response ([3]; concentration 5e-7 M) | Raw Data (Responses in nA), concentration-response ([3]; concentration 1e-6 M) | Raw Data (Responses in nA), concentration-response ([3]; concentration 5e-6 M) | Raw Data (Responses in nA), concentration-response ([3]; concentration 1e-5 M) | Raw Data (Responses in nA), concentration-response ([3]; concentration 5e-5 M) | Raw Data (Responses in nA), concentration-response ([3]; concentration 0.0001 M) | Raw Data, concentration-response ([1]; 5e-7 M) | Raw Data, concentration-response ([1]; 1e-5 M) | EC50 ([1]; AaegOR10/Orco expressing oocytes, TEVC, concentration-response of normalized current) | response of AaegOR55 to unitary compounds ([3]; AaegOR55/Orco expressing oocytes, TEVC, individual compounds) |
| --- | --- | --- | --- | --- | --- | --- | --- | --- | --- | --- | --- | --- | --- | --- | --- | --- |
| Cc1cc2ccccc2[nH]1 [2-Methylindole] | 0.0 nA | 0.0 nA (6×) and 5.0 nA | 0.0 nA |  |  |  |  |  |  |  |  |  |  |  |  |  |
| CCc1ccc(O)cc1 [4-ethylphenol, 4-Ethylphenol] | 0.0 nA | 70.0 nA and 740.0 nA and 340.0 nA and 310.0 nA and 300.0 nA and 275.0 nA and 250.0 nA | 5.0 nA (5×) and 0.0 nA (2×) | ~170 nM and 170 nM |  |  |  |  |  |  |  |  |  |  |  |  |
| Cc1[nH]c2ccccc2c1C [2,3-dimethylindole] | 70.0 nA and 20.0 nA and 0.0 nA (4×) and 10.0 nA (2×) and 30.0 nA | 0.0 nA (6×) and 5.0 nA | 235.0 nA and 140.0 nA and 250.0 nA and 300.0 nA and 185.0 nA and 305.0 nA and 295.0 nA |  | 8650 nM | 10.0 nA (6×) and 15.0 nA (2×) and 5.0 nA | 30.0 nA (4×) and 20.0 nA (2×) and 15.0 nA and 40.0 nA and 45.0 nA | 20.0 nA (2×) and 10.0 nA and 30.0 nA (2×) and 15.0 nA and 35.0 nA and 40.0 nA and 55.0 nA | 70.0 nA and 25.0 nA and 80.0 nA and 60.0 nA (2×) and 110.0 nA and 120.0 nA and 190.0 nA (2×) | 90.0 nA (2×) and 25.0 nA and 120.0 nA and 80.0 nA and 140.0 nA and 170.0 nA and 260.0 nA (2×) | 165.0 nA and 40.0 nA and 210.0 nA and 140.0 nA and 170.0 nA and 220.0 nA and 240.0 nA and 430.0 nA and 380.0 nA | 160.0 nA and 55.0 nA and 210.0 nA (3×) and 140.0 nA and 180.0 nA and 440.0 nA and 380.0 nA |  |  |  |  |
| Cc1c[nH]c2ccccc12 [3-methylindole] | 270.0 nA and 500.0 nA and 120.0 nA and 40.0 nA and 80.0 nA and 320.0 nA and 70.0 nA and 180.0 nA and 30.0 nA | 0.0 nA and 5.0 nA (5×) and 10.0 nA | 160.0 nA and 85.0 nA and 170.0 nA and 235.0 nA and 120.0 nA and 225.0 nA and 245.0 nA |  |  |  |  |  |  |  |  |  | 90.0 nA | 100.0 nA | 160 nM | responded |
